Experimental data as given in US5665390A, “Stabilized tablet formulation” (SmithKline Beecham Corporation, priority 1993, dated 1997).

Tests used:
steroid 5-α-reductase = details: cited from earlier work
[1] = stability of compound in blends/granulations versus compressed tablets; degradation products analyzed by LC/MS; format: physicochemical; details: compressed into direct compression or wet granulation tablets with excipients
Source text: Although stable when blended or granulated with one or more commonly used pharmaceutical excipients such as, for example, lactose, tribasic calcium phosphate, silicon dioxide, corn starch, sodium starch glycolate, hydroxypropyl cellulose, hydroxypropyl methylcellulose, gelatin, magnesium stearate, microcrystalline cellulose, mannitol, and sorbitol, substituted 3,5-diene steroidal compounds were unexpectedly found to undergo a significant increase in the rate of formation of degradation products when compressed into tablets with such pharmaceutical excipients. This increase in degradation products occurs whether the substituted 3,5-diene steroidal compound and said excipients are formulated in direct compression tablets or in wet granulation tablets.

[2] = Accelerated Stability Screening Method (tablets stored at 85° C., degradation by HPLC); details: additive to tablets of substituted 3,5-diene steroidal compounds
Description: The stability of N-t-butyl-androst-3,5-diene-17β-carboxamide-3-carboxylic acid (compound A) in various tablet formulations was determined by HPLC analysis.
In Experiment 1 Compound A, microcrystalline cellulose, lactose, corn starch and sodium starch glycolate shown in Table I below, were mixed in the proportions shown. […] The tablets thus prepared were placed in stability chamber at 85° and the results of the stability test were recorded in Table 2 below.
The tablets thus prepared were placed in stability chamber at 85° C. and the results of the stability test were recorded in Table 3 below.
The tablets thus prepared were placed in stability chamber at 85° C. and the results of the stability test were recorded in Table 5 below.
In Experiment 4 Standard Granulation and BHT (for Batch 8) shown in Table 6 below, or stearic acid and BHT (for Batch 9) shown in Table 7 below, were mixed and granulated in the proportions shown and compressed into tablets of about 350 mg total tablet weight. The tablets thus prepared were placed in stability chamber at 85° C. and the results of the stability test were recorded in Tables 6 and 7 below.
The tablets thus prepared were placed in stability chamber at 85° C. and the results of the stability test were recorded in Table 8 below. […]

| Compound | inhibition of steroid 5-α-reductase (steroid 5-α-reductase) | formation of degradation products when compressed into tablets [1] | stabilizing effect on tablets (percentage of degradation products) [2] |
| --- | --- | --- | --- |
| CC(C)(C)NC(=O)[C@H]1CC[C@H]2[C@@H]3CC=C4C=C(C(=O)O)CC[C@]4(C)[C@H]3CC[C@]12C [Compound A, N-t-butyl-androst-3,5-diene-17β-carboxamide-3-carboxylic acid] | useful in inhibiting steroid 5αreductase | oxidative additions (the 7 keto oxidation product and others) which only occurred when blends or granulations of Compound A were compressed into tablets | – |
| CCCCCCCCCCCCCCCCCC(=O)O [magnesium stearate] | – | – | do not exhibit such activity |
